The text below walks through data of patent US11286258B2, “Nature-inspired anticancer and antibacterial motifs and pharmaceutical composition thereof” (University of Sharjah, priority 2020, dated 2022).

The term MIC denotes the lowest concentration that inhibits growth of the organism.

SMILES strings stand for the structures. In brackets after ≈: the same amount, converted by molar mass.

The test system of this test is 6 MRSA strains. As to the kind of experiment: MIC, panel of 6 MRSA strains. Type of test: cell-based. The note with it: Staphylococcus aureus, across the panel of tested Gram-positive strains, read-out: MIC against all the 6 MRSA strains. How it is done: Antibacterial activity: The compounds were tested for the minimum inhibitory concentrations (MIC), which is the lowest concentration of a chemical required to inhibit visible microbial growth following overnight incubation. MIC values were determined using broth microdilution method according to the Clinical and Laboratory Standards Institute guidelines (CLSI, 2015, M07-A10). Mueller-Hinton broth was used as a culture medium in all the experiments. Exponentially growing bacterial cells were prepared in Mueller-Hinton broth at a concentration of approximately 5×10^5 CFU/mL. Two-fold serial dilutions of the test compound (8 concentrations ranged between 100-0.78 μg/mL) were tested. […] In each experiment, solvent (DMSO) was used as a negative control, un-treated control (composing of bacteria in Mueller-Hinton broth) was used as a growth control, blank (culture media alone) was used as sterility control. The 96-well microplate with the test compounds was incubated overnight at 37° C. Turbidity in wells indicated bacterial growth.
The compounds were tested on six MDR Gram-positive bacteria including three clinical isolates of methicillin-resistant Staphylococcus aureus (MRSA-1, MRSA-2 and MRSA-3) and three reference MRSA strains (ATCC33591, ATCC33592 and ATCC700699). They were also tested on three MDR Gram-negative bacteria including New Delhi metallo-beta-lactamase (NDM-1) positive, carbapenem-resistant E. coli (ATCC BAA2469), extended-spectrum beta-lactamase (ESBL) producing, colistin-resistant E. coli (CDC-AR-0346) and carbapenem-resistant Acinetobacter baumannii (ATCC BAA1605), in addition to two non-MDR bacteria from the same species, namely E. coli (ATCC 25922) Acinetobacter baumannii (ATCC 19606).

With `Cc1ccc2c(c1)c1c3n2[C@@]2(C=C/C(=N\Nc4ccc(C(F)(F)F)cc4)CC2)CC[C@@H]3NCC1` [Compound 1h], the MIC came to 1.56 µg/mL (≈ 3.36 µM).
